Source: a melting point compilation (Tetko et al.; mined from patent text by program, amines drawn as free bases though some values may be those of a salt)

Compound	melting point [°C]
CCCCCCCCC(SCCCCCC)C(=O)Nc1c(OCC)ccc2ncccc12 (stereo unspecified)	88 to 90
Clc1ccc2nc(-c3ccc(Cl)s3)cn2n1	226 to 230
Nc1ncc2c(n1)-c1ccc(Cl)cc1C(c1ccccc1F)=NC2	245 to 248
COC(=O)C(c1ccccc1)(c1ncc[nH]1)c1ccccc1C (stereo unspecified)	148
CC(=O)OC1CSC(Oc2ccc(F)nc2)C(OC(C)=O)C1OC(C)=O (stereo unspecified)	123
CO[C@H]1CCCC[C@@]1(OC)c1cccc(OCc2ccc3ccccc3c2)c1 (racemic)	93 to 94
O=C(CC[C@H](NC(=O)OCc1ccccc1)C(=O)OCc1ccccc1)ON1C(=O)CCC1=O	104 to 106
COC1C(C)OC(OC2CC(C)(O)C(C(=O)O)c3cc4c(c(O)c32)C(=O)c2c(O)cc3c(c2C4=O)OC2OC3(C)C(O)C(N(C)C)C2O)C(OC)C1(C)OC (stereo unspecified)	219 to 229
O=C1COCCN1c1ccc(N2C[C@@H](CN(Cc3ccccc3)Cc3ccccc3)OC2=O)cc1	140 to 145
CCN(C(C)=O)c1ccc(OC23CCC(CC2)CC3)cc1	99 to 101
O=C(Oc1ccc(Oc2ccc(C(F)(F)F)cn2)cc1)N1CCN(CCc2cccnc2)CC1	173 to 179
CCCn1nc2c(N)nc3ccccc3c2c1CCCCN1C(C)=NOC1(C)C	144 to 146
O=[N+]([O-])c1cc(F)ccc1OC1CCC(O)CC1 (stereo unspecified)	151
CN(C)c1ccc(-c2cn[nH]c2N)cc1	173 to 176
CC(=O)NC12CC3CC(C)(CC(C)(C3)C1)C2	113 to 114
COC(=O)c1cc(Cl)c(N)c2c1OCCCN2	92 to 95
COc1cc(OC)c(F)c(N2Cc3cnc(SC)nc3N(C3CC3)C2=O)c1F	173 to 176
CCC1Cc2cc3c(cc2C(c2ccc([N+](=O)[O-])cc2)O1)OCO3 (stereo unspecified)	116 to 118
OC1(c2cccc(OCc3ccccc3)c2)CCOCC1	84 to 86
CN(Cc1ccccc1)C(=N)N[N+](=O)[O-]	103 to 107
C#CCCCCC(=O)Nc1nc2nn(C)cc2c2nc(-c3ccco3)nn12	208 to 215
CC(=O)NC1CC(C)(C)N(OCc2cccc(C)c2)C(C)(C)C1	163 to 164
c1ccc(-c2cccc(-n3cnc4cccnc43)c2)cc1	89 to 91
CC(=O)N1CCN(NC(=O)c2ccc(F)cc2)CC1	209 to 210
COC(=O)C(F)[C@@H]1[C@H]2O[C@H]2C[C@H]1O (stereo partly specified)	31 to 33

Compound	melting point [°C]
CCOC(=O)c1ncc2ccccc2n1	71 to 74
COc1ccc(Br)cc1N1CCCC1	47 to 48
COc1ccccc1-c1nc(N)c(C(N)=O)nc1-c1ccc(=O)n(C(C)C)c1	263
COc1cc2[nH]c(=O)c(-c3csc(-c4cccnc4)n3)c(N)c2cc1OC	> 250
CC1=c2c(cc3c(c2C)-c2ccccc2N=3)N=C1c1nc(C)no1	248 to 249
CC(C#N)(c1ccccc1)c1cccnn1 (stereo unspecified)	114 to 115
O=[N+]([O-])c1ccccc1OC1OC(COP(=O)(O)O)C(O)C(O)C1O (stereo unspecified)	181 to 183
COc1cc(NC(=O)CC#N)c(Cl)cc1Cl	180 to 181
Cc1ccc(C=CC2CCC(c3ccccc3)(N(C)C)CC2)cc1 (stereo unspecified)	130 to 145
CC(=O)NC(C)Cc1ccccc1 (stereo unspecified)	91 to 93
COc1ccc(COc2cccc(C=O)c2)cc1	78
Cc1c(Cc2ccccc2)c2c(c(C)c1NC(=O)CC(C)(C)C)C(c1ccc(C(C)C)cc1)CO2 (stereo unspecified)	153 to 154
COc1ccc(C(=O)c2cccc([N+](=O)[O-])c2)cc1	88 to 89
CCOCc1cc2ccccc2oc1=O	95 to 96
O=C(O)Cc1ccc2nc(-c3ccccc3)oc2c1	170
O=C1Nc2ccccc2N(C(=O)N2CCCC(CCCN3CCOCC3)C2)c2ncccc21 (stereo unspecified)	161 to 163
CC1Cc2cc3c(cc2C(c2ccc([N+](=O)[O-])cc2)=NN1C(=O)CCCC(=O)O)OCO3 (stereo unspecified)	148 to 150
CCCCCC(=O)c1cnc2c(OC)cccc2c1Nc1ccccc1C	94 to 96
COC(=O)c1c(-c2ccc(OC)cc2)sc2cc(OC)ccc12	85.4 to 86.6
O=C(c1ccc(Cl)cc1)c1cc2ccccc2cc1O	135 to 137
CNC(=O)NS(=O)(=O)c1cc2c(cc1OC)OCC(NC(=O)c1cc(Cl)ccc1OC)C2 (stereo unspecified)	256 to 257
CSc1ncccc1NC(=O)CCCCCSc1nc2ccccc2o1	127 to 128
CSc1nccc(Oc2ccc(NC(=O)c3cc(F)cc(OC4CCCCC4)c3)c3ccccc23)n1	130 to 132
CCOC(=O)c1cc2cc(SC(=O)N(C)C)ccc2oc1=O	133 to 134
CC(Oc1ccc(C(=O)NCCN(O)C(N)=O)cc1)c1ccccc1 (stereo unspecified)	164 to 166

The next lines start with the values.

melting point [°C]	Compound
91 to 92	CCCc1nn(-c2ccc(C(F)(F)F)cn2)cc1CCCCOc1ccc(CCC(=O)O)c(OC)c1
255 to 257	O=C(O)c1ccc2c(c1)S(=O)c1cc(F)ccc1C=C2 (stereo unspecified)
134 to 135	CCCOc1ccc(-c2ncccc2S(=O)(=O)Nc2ncc(C)nc2OC)cc1
90 to 100	CN(C)c1c(F)c(F)c(F)c(F)c1C(=O)O
190 to 192	Cc1ncncc1NC(=O)Nc1ccc(-n2nc(C(F)(F)F)cc2C2CC2)cc1
101 to 104	O=c1ccccn1C1=CC(CF)(CF)Oc2ccc(C(F)(F)C(F)(F)C(F)(F)F)cc21
80 to 85	CC(C)COc1c(-c2ccc(S(N)(=O)=O)cc2)cnn(-c2cccc(Cl)c2)c1=O
226 to 229	NS(=O)(=O)c1ccc(CCN2C(=O)c3ccccc3C2=O)s1
87 to 92	COc1cc(Oc2cccc(C(F)(F)F)c2)nc(C(=O)NCc2ccccc2)c1
79.7	COc1ccc(S(=O)(=O)N(C(=O)C(F)(F)F)c2ccc(Cl)cc2Cc2c(F)cccc2F)cc1OC
96 to 97	CC(=O)Nc1c([N+](=O)[O-])cc(F)c(F)c1F
189 to 192	O=C(NC(=O)c1cccnc1Cl)Nc1cc(Cl)c(OC(F)(F)C(Cl)Cl)c(Cl)c1
100 to 102	CS(=O)c1cc(Cl)c(C=O)c(Cl)c1 (stereo unspecified)
95 to 96	CC(=S)NC[C@H]1CN(c2ccc3c(c2)C[C@@H](C)N3C=O)C(=O)O1
58 to 60	C=CS(=O)(=O)CCC(F)(F)C(F)(F)C(F)(F)C(F)(F)C(F)(F)C(F)(F)F
221	CCOc1ccc2c(c1)n(C13CC4CC(CC(C4)C1)C3)c(=O)n2S(=O)(=O)c1ccc(NC(=O)N(CC)CC)cc1OC
199 to 200	O=S(=O)(c1ccc(Br)cc1)N1CCN(c2ccncc2)CC1
70 to 72	COC(=O)c1ccc(S(C)(=O)=O)c(C(=O)NCC(C)CO)c1Cl (stereo unspecified)
153 to 156	CC(C)(C)C(=O)OCC1OC(OC(=O)C(C)(C)C)C(OC(=O)C(C)(C)C)C(OC(=O)C(C)(C)C)C1OC(=O)C(C)(C)C (stereo unspecified)
209 to 210	CCCSc1cc(C(=O)O)cc(S(N)(=O)=O)c1Oc1ccccc1
116 to 117	COC1C=C(C)C(=O)CC(C)(C)C1OC(=O)Cc1csc(N)n1 (stereo unspecified)
